# Measurements reported in paper PMC10035389, “Safety, Tolerability, and Pharmacokinetics of TAK-931, a Cell Division Cycle 7 Inhibitor, in Patients with Advanced Solid Tumors: A Phase I First-in-Human Study” (Cancer Research Communications, 2022).
# Columns and labels:
# [1] = test system: patients with advanced solid tumors; assay: Dose-limiting toxicities, MTD and RP2D determination (BLRM-guided dose escalation); assay type: in vivo, human
# Description: This was a phase I, open-label, dose-escalation study of single-agent TAK-931. Dose escalation of TAK-931 was cohort based with an adaptive design using Bayesian logistic regression modeling (BLRM) with pharmacokinetic guidance. BLRM also guided MTD estimation from the second dose. Patients were enrolled in one of four dosing schedules (A, B, D, or E; Supplementary Fig. S1) to receive TAK-931. Two additional schedules were planned (C and F) but no patients were enrolled. Schedule A included an initial accelerated escalation phase. TAK-931 was administered once daily for 14 days in 21-day cycles starting at 30 mg, which doubled until a cycle 1 dose-limiting toxicity (DLT) was observed, when 2 patients experienced grade ≥2 treatment-related toxicity, or when maximum geometric mean plasma concentration (Cmax) for the cohort reached or exceeded 800 ng/mL [threshold for off-target adverse effects (hypotension) in animal toxicology studies]; then dose escalation transitioned to modified Fibonacci escalation steps. In schedule B (based on experience with schedule A), patients received TAK-931 once daily or twice daily for 7 days on, 7 days off in a 28-day cycle starting at 60 mg. In schedule D, patients received TAK-931 once daily starting at 20 mg in 21-day cycles; BLRM was not applied but further adjustments were dependent on observed safety, pharmacokinetics, and pharmacodynamics. In schedule E, patients received TAK-931 once daily for 2 days on, 5 days off starting at 100 mg in 21-day cycles. A safety expansion was permitted once MTD had been determined. Prophylactic growth factors were permitted in all schedules to manage severe and/or febrile neutropenia. TAK-931 treatment continued until unacceptable toxicity, disease progression, or patient withdrawal.
# (§1) DLTs included: cycle 1 grade ≥3 hematologic and non-hematologic events or grade 2 non-hematologic events considered by the investigator to be TAK-931-related, grade 2 ejection fraction decrease, >2 weeks delay in initiating cycle 2 (1 week for schedules D and E), and >50% TAK-931 dose reduction in cycle 1 due to treatment-related adverse events (AEs; see Supplementary Materials and Methods for full DLT criteria). Toxicity was evaluated by NCI Common Terminology Criteria for Adverse Events (version 4.03). Tumor response was measured using the RECIST (version 1.1) ([16]). Serial blood samples for pharmacokinetic analysis were collected during cycle 1 on days 1 and 7 (schedule B), 1 and 8 (schedules A and D), or 1 and 9 (schedule E). Pharmacokinetic parameters were estimated from concentration–time profiles using noncompartmental methods with WinNonlin® Phoenix™ version 8.1 (Certara, Princeton, NJ). pMCM2 was detected semiquantitatively by IHC of histologic sections of formalin-fixed, paraffin-embedded skin and tumor biopsies using anti-pMCM2 (3378-1, Epitomics Inc.; ref. [15]). Quantitative image analysis determined pMCM2 levels as “histologic score nuclei (H-score).” Skin punch biopsies (2–4 mm) were obtained during screening or predose on cycle 1, day 1 and for patients in schedules A, B, and D, postdose on any drug dosing day after 3 consecutive dosing days in cycle 1. A postdose skin biopsy was obtained on day 9 in schedule E. Fresh tumor biopsy pairs were collected predose and postdose on any dosing day after the completion of 3 consecutive dosing days in cycle 1 from patients who received doses considered to have biological effect.
# A dose-limiting toxicity (DLT) was defined as any of the following events that occurred during cycle 1 and were considered by the investigator to be related to TAK-931:
# Grade 4 neutropenia (ANC <500 cells/mm^3) lasting >7 consecutive days; if myeloid growth factors were used, the event was considered a DLT irrespective of the duration
# Grade ≥3 neutropenia (ANC <1000 cells/mm^3) with fever and/or infection, where fever was defined as a single temperature of >38.3°C or sustained temperature of ≥38°C for >1 hour […]
# advanced solid tumors = assay: Tumor response by RECIST version 1.1; assay type: in vivo, human; parameters: key to Best response, individual patient: PD: progressive disease; PR: partial response; SD: stable disease; details: for Duration of SD / Duration PR maintained: 1 patient
# Method: as §1
# The safety population included patients who received ≥1 dose of TAK-931. The pharmacodynamic-evaluable population comprised patients from the safety population with a baseline and ≥1 additional postbaseline biopsy sample that was suitable for pMCM2 analysis. The pharmacokinetic-evaluable population included patients with sufficient dosing and TAK-931 concentration–time data to estimate pharmacokinetic parameters. The response-evaluable population included patients in the safety population with measurable disease at baseline and ≥1 postbaseline response assessment.
# [2] = animal toxicology studies; used as escalation limit; cited from earlier work
structure (smiles),measurement,setting,value
"Cc1[nH]ncc1-c1cc2nc([C@@H]3CC4CCN3CC4)[nH]c(=O)c2s1 [TAK-931, simurosertib]",Recommended phase II dose,[1]; once daily days 1–14 in 21-day cycles,50 mg
same,Patients with DLTs (grade 4 neutropenia),[1]; schedule A,2 patients
same,Patients with DLT of grade 4 neutropenia lasting >3 days,"[1]; schedule A, 60 mg",2 of 3
same,Maximum tolerated dose (MTD),[1]; schedule A: once daily days 1–14 of 21-day cycle,50 mg
same,Patients with DLT of grade 3 febrile neutropenia,[1]; schedule B,3 n
same,Patients with DLT of grade 4 neutropenia,[1]; schedule B,1 n
same,Patients with DLTs,[1]; schedule B,4 patients
same,Patients with DLT of grade 3 febrile neutropenia,"[1]; schedule B, 80 mg",2 of 9
same,Patients with DLT of grade 4 neutropenia lasting >7 days,"[1]; schedule B, 100 mg",One of 6
same,Patients with DLT of grade 3 febrile neutropenia,"[1]; schedule B, 120 mg",one of six
same,Maximum tolerated dose (MTD),[1]; schedule B: days 1–7 and 15–21 of 28-day cycle,100 mg
same,Patients with DLT of grade 4 neutropenia,"[1]; schedule D, 40 mg",1 patient
same,Patients with DLT of grade 3 febrile neutropenia,"[1]; schedule E, 150 mg",a second patient
same,Patients with DLT of grade 4 neutropenia,"[1]; schedule E, 150 mg",1 patient
same,Duration of SD,"advanced solid tumors; cervical cancer, schedule A (50 mg)",11.33 months
same,Duration of SD,"advanced solid tumors; cervical cancer, schedule D (40 mg)",15.24 months
same,Duration PR maintained,"advanced solid tumors; cervical squamous cell cancer, schedule A 60 mg",2.2 months
same,Duration PR maintained,"advanced solid tumors; duodenal squamous cell cancer, schedule A 30 mg",2.1 months
same,Duration PR maintained,"advanced solid tumors; esophageal cancer, schedule B 100 mg",4.2 months
same,Duration PR maintained,"advanced solid tumors; esophageal squamous cell cancer, schedule A 50 mg",2.7 months
same,Duration of SD,"advanced solid tumors; thymic cancer, schedule A (50 mg)",10.45 months
same,CR (complete response) as best response,advanced solid tumors; Schedule A n = 24,0 n (%) [95% CI]
same,CR (complete response) as best response,advanced solid tumors; Schedule B n = 23,0 n (%) [95% CI]
same,CR (complete response) as best response,advanced solid tumors; Schedule D n = 17,0 n (%) [95% CI]
same,"ORR (overall response rate), investigator's assessment",advanced solid tumors; Schedule D n = 17,0 n (%) [95% CI]
same,PR (partial response) as best response,advanced solid tumors; Schedule D n = 17,0 n (%) [95% CI]
same,CR (complete response) as best response,advanced solid tumors; Schedule E n = 11,0 n (%) [95% CI]
same,"ORR (overall response rate), investigator's assessment",advanced solid tumors; Schedule E n = 11,0 n (%) [95% CI]
same,PR (partial response) as best response,advanced solid tumors; Schedule E n = 11,0 n (%) [95% CI]
same,Patients achieving a partial response,advanced solid tumors; overall,5 patients
same,Patients with best response of SD,advanced solid tumors; overall,28 patients
same,"Share of patients with SD or PR having esophageal, thymic, or cervical cancer",advanced solid tumors; overall,39%
same,Median progression-free survival,"advanced solid tumors; overall, 95% confidence interval, 1.94–3.06",2.2 months
same,Overall response rate (ORR),advanced solid tumors; schedule A,13%
same,"Best response, individual patient","advanced solid tumors; schedule A, 30 mg, cancer type Duodenal",PR
same,"Best response, individual patient","advanced solid tumors; schedule A, 30 mg, cancer type Pancreatic",SD
same,"Best response, individual patient","advanced solid tumors; schedule A, 30 mg, cancer type Rectal",PD
same,"Best response, individual patient","advanced solid tumors; schedule A, 40 mg, cancer type Breast",PD
same,"Best response, individual patient","advanced solid tumors; schedule A, 40 mg, cancer type Rectal",PD
same,"Best response, individual patient","advanced solid tumors; schedule A, 40 mg, cancer type Unknown",SD
same,"Best response, individual patient","advanced solid tumors; schedule A, 60 mg, cancer type Cervical",PR
same,"Best response, individual patient","advanced solid tumors; schedule A, 60 mg, cancer type Ovarian",SD
same,"Best response, individual patient","advanced solid tumors; schedule A, 60 mg, cancer type Pancreatic",SD
same,Overall response rate (ORR),advanced solid tumors; schedule B,9%
same,Cmax threshold for off-target adverse effects (hypotension),[2],800 ng/mL
